# Measured values from US9662327B2 (AGIOS PHARMACEUTICALS, INC, priority 2011, dated 2017).
# Target: IDH1 R132H (Homo sapiens (Human), UniProt O75874, R132H)
# Test: Assays for IDH1 R132H Inhibitors (NADPH/aKG, resazurin detection)
# Format: biochemical
# Settings: IDH1 R132H enzyme, Table 2; read-out: IDHR132H Activity
# Protocol: Assays were conducted in a volume of […] assay buffer (150 mM NaCl, 10 mM MgCl2, 20 mM Tris pH 7.5, 0.03% bovine serum albumin) as follows in a standard 384-well plate: To 25 ul of substrate mix (8 uM NADPH, 2 mM aKG), 1 μl of test compound was added in DMSO. […] The reaction was incubated for 50 minutes at room temperature, then 25 μl of detection mix (30 μM resazurin, […]) was added and the mixture further incubated for 5 minutes at room temperature.
# IDH1 R132H, sequence (O75874 whole entry R132H): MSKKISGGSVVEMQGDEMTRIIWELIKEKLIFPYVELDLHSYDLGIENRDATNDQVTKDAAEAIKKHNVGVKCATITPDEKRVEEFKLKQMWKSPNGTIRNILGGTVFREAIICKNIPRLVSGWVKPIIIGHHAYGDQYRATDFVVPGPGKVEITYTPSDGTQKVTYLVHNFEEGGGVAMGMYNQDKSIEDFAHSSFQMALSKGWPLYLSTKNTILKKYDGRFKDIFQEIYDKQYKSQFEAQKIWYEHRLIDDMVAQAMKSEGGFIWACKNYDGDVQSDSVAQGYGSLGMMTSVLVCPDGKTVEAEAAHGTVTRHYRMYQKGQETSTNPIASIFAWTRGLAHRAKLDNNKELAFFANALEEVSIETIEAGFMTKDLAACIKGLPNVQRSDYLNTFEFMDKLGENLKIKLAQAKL
row,IC50 [nM],SMILES
1,1000 to 10000,"CC(C)c1nc(N2CCN(C(=O)Cc3cc(F)cc(F)c3)[C@H](C)C2)c(C#N)c2c1COC(C)(C)C2 [Compound 159, (R)-6-(4-(2-(3,5-difluorophenyl)acetyl)-3-methylpiperazin-1-yl)-8-isopropyl-3,3-dimethyl-3,4-dihydro-1H-pyrano[3,4-c]pyridine-5-carbonitrile]"
2,1000 to 10000,"C[C@@H]1CN(c2nc(C3CCCCC3)c3c(c2C#N)CCOC3)CCN1C(=O)c1ccoc1 [Compound 160, (R)-8-cyclohexyl-6-(4-(furan-3-carbonyl)-3-methylpiperazin-1-yl)-3,4-dihydro-1H-pyrano[3,4-c]pyridine-5-carbonitrile]"
3,1000 to 10000,"CC(C)c1nc(N2CCN(C(=O)Cc3cccc(Cl)c3)[C@H](C)C2)c(C#N)c2c1COC(C)(C)C2 [Compound 161, (R)-6-(4-(2-(3-chlorophenyl)acetyl)-3-methylpiperazin-1-yl)-8-isopropyl-3,3-dimethyl-3,4-dihydro-1H-pyrano[3,4-c]pyridine-5-carbonitrile]"
4,1000 to 10000,"C[C@@H]1CN(c2nc(C3CCCCC3)c3c(c2C#N)CCOC3)CCN1C(=O)c1ccco1 [Compound 162, (R)-8-cyclohexyl-6-(4-(furan-2-carbonyl)-3-methylpiperazin-1-yl)-3,4-dihydro-1H-pyrano[3,4-c]pyridine-5-carbonitrile]"
5,500 to 1000,"Cc1occc1C(=O)N1CCN(c2nc(C(C)C)c3c(c2C#N)CC(C)(C)OC3)C[C@H]1C [Compound 163, (R)-8-isopropyl-3,3-dimethyl-6-(3-methyl-4-(2-methylfuran-3-carbonyl)piperazin-1-yl)-3,4-dihydro-1H-pyrano[3,4-c]pyridine-5-carbonitrile]"
6,500 to 1000,C[C@@H]1CN(c2nc(C3CC3)c3c(c2C#N)CC(C)(C)OC3)CCN1C(=O)c1ccoc1 [Compound 164]
7,< 500,"CC(C)c1nc(N2CCN(C(=O)c3ccoc3)[C@H](C(C)C)C2)c(C#N)c2c1COC(C)(C)C2 [Compound 165, (R)-6-(4-(furan-3-carbonyl)-3-isopropylpiperazin-1-yl)-8-isopropyl-3,3-dimethyl-3,4-dihydro-1H-pyrano[3,4-c]pyridine-5-carbonitrile]"
8,1000 to 10000,"CC(C)c1nc(N2CCN(C(=O)c3ccc(Cl)cc3Cl)[C@H](C)C2)c(C#N)c2c1COC(C)(C)C2 [Compound 166, (R)-6-(4-(2,4-dichlorobenzoyl)-3-methylpiperazin-1-yl)-8-isopropyl-3,3-dimethyl-3,4-dihydro-1H-pyrano[3,4-c]pyridine-5-carbonitrile]"
9,1000 to 10000,C[C@@H]1CN(c2nc(C3CC3)c3c(c2C#N)CC(C)(C)OC3)CCN1C(=O)c1ccco1 [Compound 167]
10,1000 to 10000,"CC1CN(c2nc(C3CCCCC3)c3c(c2C#N)CC(C)(C)OC3)CCN1C(=O)c1ccco1 (stereo not shown) [Compound 168, 8-cyclohexyl-6-(4-(furan-2-carbonyl)-3-methylpiperazin-1-yl)-3,3-dimethyl-3,4-dihydro-1H-pyrano[3,4-c]pyridine-5-carbonitrile]"
11,1000 to 10000,"CC1CN(c2nc(C3CCCCC3)c3c(c2C#N)CC(C)(C)OC3)CCN1C(=O)c1ccoc1 (stereo not shown) [Compound 169, 8-cyclohexyl-6-(4-(furan-3-carbonyl)-3-methylpiperazin-1-yl)-3,3-dimethyl-3,4-dihydro-1H-pyrano[3,4-c]pyridine-5-carbonitrile]"
12,1000 to 10000,"CC(C)c1nc(N2CCN(S(=O)(=O)c3cccs3)[C@H](C)C2)c(C#N)c2c1COC(C)(C)C2 [Compound 170, (R)-8-isopropyl-3,3-dimethyl-6-(3-methyl-4-(thiophen-2-ylsulfonyl)piperazin-1-yl)-3,4-dihydro-1H-pyrano[3,4-c]pyridine-5-carbonitrile]"
13,< 500,"CC(C)c1nc(N2CCN(C(=O)c3ccco3)[C@H](C(C)C)C2)c(C#N)c2c1COC(C)(C)C2 [Compound 171, (R)-6-(4-(furan-2-carbonyl)-3-isopropylpiperazin-1-yl)-8-isopropyl-3,3-dimethyl-3,4-dihydro-1H-pyrano[3,4-c]pyridine-5-carbonitrile]"
14,1000 to 10000,"CCC1CN(c2nc(C(C)C)c3c(c2C#N)CC(C)(C)OC3)CCN1C(=O)c1ccoc1 (stereo not shown) [Compound 172, 6-(3-ethyl-4-(furan-3-carbonyl)piperazin-1-yl)-8-isopropyl-3,3-dimethyl-3,4-dihydro-1H-pyrano[3,4-c]pyridine-5-carbonitrile]"
15,1000 to 10000,"Cc1ccoc1C(=O)N1CCN(c2nc(C(C)C)c3c(c2C#N)CC(C)(C)OC3)C[C@H]1C [Compound 173, (R)-8-isopropyl-3,3-dimethyl-6-(3-methyl-4-(3-methylfuran-2-carbonyl)piperazin-1-yl)-3,4-dihydro-1H-pyrano[3,4-c]pyridine-5-carbonitrile]"
16,1000 to 10000,"CCC1CN(c2nc(C3CCCCC3)c3c(c2C#N)CCOC3)CCN1C(=O)c1ccco1 (stereo not shown) [Compound 174, 8-cyclohexyl-6-(3-ethyl-4-(furan-2-carbonyl)piperazin-1-yl)-3,4-dihydro-1H-pyrano[3,4-c]pyridine-5-carbonitrile]"

row,IC50 [nM],SMILES
1,1000 to 10000,"CCC1CN(c2nc(C3CCCCC3)c3c(c2C#N)CCOC3)CCN1C(=O)c1ccoc1 (stereo not shown) [Compound 175, 8-cyclohexyl-6-(3-ethyl-4-(furan-3-carbonyl)piperazin-1-yl)-3,4-dihydro-1H-pyrano[3,4-c]pyridine-5-carbonitrile]"
2,< 500,"Cc1occc1C(=O)N1CCN(c2nc(C(C)C)c3c(c2C#N)CC(C)(C)OC3)C[C@H]1C(C)C [Compound 176, (R)-8-isopropyl-6-(3-isopropyl-4-(2-methylfuran-3-carbonyl)piperazin-1-yl)-3,3-dimethyl-3,4-dihydro-1H-pyrano[3,4-c]pyridine-5-carbonitrile]"
3,1000 to 10000,"Cc1occc1C(=O)N1CCN(c2nc(C(C)C)c3c(c2C#N)CCOC3)C(c2ccccc2)C1 (stereo not shown) [Compound 177, 8-isopropyl-6-(4-(2-methylfuran-3-carbonyl)-2-phenylpiperazin-1-yl)-3,4-dihydro-1H-pyrano[3,4-c]pyridine-5-carbonitrile]"
4,1000 to 10000,"CC(C)c1nc(N2CCN(C(=O)c3ccoc3)CC2c2ccccc2)c(C#N)c2c1COC(C)(C)C2 (stereo not shown) [Compound 178, 6-(4-(furan-3-carbonyl)-2-phenylpiperazin-1-yl)-8-isopropyl-3,3-dimethyl-3,4-dihydro-1H-pyrano[3,4-c]pyridine-5-carbonitrile]"
5,1000 to 10000,"Cc1occc1C(=O)N1CCN(c2nc(C(C)C)c3c(c2C#N)CC(C)(C)OC3)C(c2ccccc2)C1 (stereo not shown) [Compound 179, 8-isopropyl-3,3-dimethyl-6-(4-(2-methylfuran-3-carbonyl)-2-phenylpiperazin-1-yl)-3,4-dihydro-1H-pyrano[3,4-c]pyridine-5-carbonitrile]"
6,< 500,"CC(C)[C@@H]1CN(c2nc(C3CC3)c3c(c2C#N)CC(C)(C)OC3)CCN1C(=O)c1ccoc1 [Compound 180, (R)-8-cyclopropyl-6-(4-(furan-3-carbonyl)-3-isopropylpiperazin-1-yl)-3,3-dimethyl-3,4-dihydro-1H-pyrano[3,4-c]pyridine-5-carbonitrile]"
7,< 500,Cc1occc1C(=O)N1CCN(c2nc(C3CC3)c3c(c2C#N)CC(C)(C)OC3)C[C@H]1C(C)C [Compound 181]
8,1000 to 10000,"CC(C)[C@@H]1CN(c2nc(C3CCCCC3)c3c(c2C#N)CCOC3)CCN1C(=O)c1ccco1 [Compound 182, (R)-8-cyclohexyl-6-(4-(furan-2-carbonyl)-3-isopropylpiperazin-1-yl)-3,4-dihydro-1H-pyrano[3,4-c]pyridine-5-carbonitrile]"
9,1000 to 10000,"CC(C)[C@@H]1CN(c2nc(C3CCCCC3)c3c(c2C#N)CCOC3)CCN1C(=O)c1ccoc1 [Compound 183, (R)-8-cyclohexyl-6-(4-(furan-3-carbonyl)-3-isopropylpiperazin-1-yl)-3,4-dihydro-1H-pyrano[3,4-c]pyridine-5-carbonitrile]"
10,1000 to 10000,"Cc1occc1C(=O)N1CCN(c2nc(C3CCCCC3)c3c(c2C#N)CCOC3)C[C@H]1C [Compound 184, (R)-8-cyclohexyl-6-(3-methyl-4-(2-methylfuran-3-carbonyl)piperazin-1-yl)-3,4-dihydro-1H-pyrano[3,4-c]pyridine-5-carbonitrile]"
11,1000 to 10000,"C[C@@H]1CN(c2nc(C3CCCCC3)c3c(c2C#N)CCOC3)CCN1C(=O)Cc1cccs1 [Compound 185, (R)-8-cyclohexyl-6-(3-methyl-4-(2-(thiophen-2-yl)acetyl)piperazin-1-yl)-3,4-dihydro-1H-pyrano[3,4-c]pyridine-5-carbonitrile]"
12,1000 to 10000,"Cc1ccoc1C(=O)N1CCN(c2nc(C3CCCCC3)c3c(c2C#N)CCOC3)C[C@H]1C [Compound 186, (R)-8-cyclohexyl-6-(3-methyl-4-(3-methylfuran-2-carbonyl)piperazin-1-yl)-3,4-dihydro-1H-pyrano[3,4-c]pyridine-5-carbonitrile]"
13,500 to 1000,"Cc1oncc1C(=O)N1CCN(c2nc(C3CCCCC3)c3c(c2C#N)CCOC3)C[C@H]1C [Compound 187, (R)-8-cyclohexyl-6-(3-methyl-4-(5-methylisoxazole-4-carbonyl)piperazin-1-yl)-3,4-dihydro-1H-pyrano[3,4-c]pyridine-5-carbonitrile]"
14,1000 to 10000,"C[C@@H]1CN(c2nc(C3CCCCC3)c3c(c2C#N)CCOC3)CCN1C(=O)Cc1ccccc1F [Compound 188, (R)-8-cyclohexyl-6-(4-(2-(2-fluorophenyl)acetyl)-3-methylpiperazin-1-yl)-3,4-dihydro-1H-pyrano[3,4-c]pyridine-5-carbonitrile]"
15,1000 to 10000,"COc1cccc(CC(=O)N2CCN(c3nc(C4CCCCC4)c4c(c3C#N)CCOC4)C[C@H]2C)c1 [Compound 189, (R)-8-cyclohexyl-6-(4-(2-(3-methoxyphenyl)acetyl)-3-methylpiperazin-1-yl)-3,4-dihydro-1H-pyrano[3,4-c]pyridine-5-carbonitrile]"
